Measurements published in patent publication US20240261302A1, “METHODS OF TREATING NEURODEGENERATIVE DISEASES OR CONDITIONS” (FloraScience Inc., priority 2023, published 2024).
“Also recorded” adds a separate entry of the source.

Columns and labels:
[1] = system: SH-SY5Y neuroblastoma cells; assay: Mitochondrial Membrane Potential Assay (JC-10) in SH-SY5Y cells; assay type: cell-based; conditions: 4 hr
Protocol: SH-SY5Y neuroblastoma cells were cultured in 1:1 (v/v) DMEM/F12 medium (Invitrogen, Cat #11330032, Carlsbad, CA) supplemented with 1% non-essential amino acids (Invitrogen, Cat #11140050), 10% FBS, and 1% antibiotics including penicillin and streptomycin. Cell cultures were incubated at 37° C. in a fully humidified atmosphere containing 10% CO2.
(§1) Mitochondrial Membrane Potential Assay. Cells seeded at 5,000 cells/well onto 96-well black walled plates were treated with test compounds at the desired concentrations under the culture condition described above. The mitochondrial uncoupler FCCP at 2 μM was used as a reference control. After the desired treatments for 4 hr, the cells were subjected to a JC-10 mitochondrial membrane potential assay according to the manufacturer's instruction. Fluorescence intensities (Ex/Em=490/525 nm, and Ex/Em=540/590 nm) of each well were monitored on a SpectraMax M5 microplate reader. The ratio of fluorescence intensity (590/525 nm) was used to determine the mitochondrial membrane potential (ΔΨm). Decreasing ratios indicate mitochondrial membrane depolarization. Samples were analyzed in eight to sixteen wells per independent experiment (n=8-16). Results were verified by live-cell imaging under a fluorescence microscope.

[2] = Cell-free, liposome-based assay of lipid peroxidation (STY-BODIPY); assay type: biochemical; conditions: test compounds 10 μM
Protocol: For the cell-free, liposome-based assay, STY-BODIPY (1.5 μM) and liposomes of egg-PC (1 mM) (Avanti Polar Lipids Inc, Cat #840051P, AL) in TBS (pH 7.4) were added to an opaque 96-well plate. This was followed by the addition of test compounds (10 μM). The plate was incubated for 30 min at 37° C. and then vigorously mixed for 5 min. The autoxidation was initiated by the addition of V-70 (0.5 mM) (Fujifilm Wako, Cat #001-70078, Japan), followed by additional mixing for 5 min. Data were acquired at Ex/Em=488/518 nm every 15 min at 37° C. on a SpectraMax M5 microplate reader. Data were transformed into [ox-STY-BODIPY] by taking the raw fluorescent values of the saturated curve of control DMSO and dividing them by the initial concentration of reduced STY-BODIPY ([…]). Samples were analyzed in quadruplicate in four independent experiments (n=4).

HT22 cells [3] = assay: Ferroptosis Assay (RSL3-induced cell death, MTT); assay type: cell-based, mouse; conditions: for EC50: Mus musculus, HT-22, MTT
Protocol: Ferroptosis Assay: HT22 cells were seeded at 3,000 cells/well in 96-well tissue culture plates in DMEM plus 10% FBS and 1% antibiotics. After 24 hr of plating, the cells were pretreated with different concentrations of test compounds or a vehicle control for 1 hr followed by coincubation with 50 nM RSL3 to induce the cell death cascade. After 16 hr of treatment, cell viability was measured by the MTT assay. Optical absorbance was measured at 570 nm on a SpectraMax M5 microplate reader. Samples were analyzed in eight to sixteen wells per independent experiment (n=8-16). Results were presented as the percentage of the controls with vehicle alone.

HT22 cells [4] = assay: Mitochondrial Membrane Potential Assay (JC-10) in HT22 cells; assay type: cell-based, mouse; conditions: 5 μM, 4 hr, p<0.0001
Protocol: as §1

CB1/CB2 receptors = conditions: cited from earlier work
HT22 cells [5] = assay: Cellular Lipid Peroxidation Measurement (C11-BODIPY); assay type: cell-based, mouse
Protocol: Lipid Peroxidation MeasurementsHT22 cells were seeded onto 96-well black walled plates at a density of 3,000 cells/well in DMEM supplemented with 10% FBS and 1% antibiotics. After the desired treatments, cells were labeled with 2.5 μM C11-BODIPY 581/591 (oxidized form Ex/Em=488/520 nm) at 37° C. for 2 hr. Experiments were performed according to the manufacturer's instructions. Fluorescence was measured on a SpectraMax M5 microplate reader. Data were normalized for total protein/well. Each condition was analyzed in twelve wells per independent experiment (n=12). Results were presented as the percentage of the controls with vehicle alone. Results were verified by live-cell imaging under a fluorescence microscope.

[6] = system: HT22 mt-GFP/mCherry-Parkin cells; assay: Cell viability after RSL3 with/without FCCP (CyQUANT DNA-based assay, fluorescence microscopy), mt-GFP/mCherry-Parkin cells; parameters: species or system mouse
HT22 cells [7] = assay: Calcium Measurements (Fluo-4 AM, Rhod-2 AM); assay type: cell-based, mouse
Protocol: Calcium Measurements. HT22 cells were seeded onto 96-well black walled plates at a density of 5,000 cells/well in DMEM supplemented with 10% FBS and 1% antibiotics. After the desired treatments, Ca^2+ levels were detected with Fluo-4 AM (Ex/Em=494/516 nm) and Rhod-2 AM (Ex/Em=552/581 nm) calcium indicator dyes specific to cytosol and mitochondria, respectively. Fluorescence was measured on a SpectraMax M5 microplate reader. Experiments were performed according to the manufacturer's instructions. Data were normalized for total protein/well. Each condition was analyzed in sixteen wells per independent experiment (n=16). Results were presented as the percentage of the controls with vehicle alone. Results were verified by live-cell imaging under a fluorescence microscope.

HT22 cells [8] = assay: Oxytosis/ferroptosis assay with erastin (Table 2); assay type: cell-based; conditions: Mus musculus, HT-22; erastin as inducer; method not given; read-out: Observed EC50 erastin

Which “decrease of ΔΨm” value [1] does the source give for `CCCCCc1cc(O)c2c(c1)OC(C)(C)c1ccc(C)cc1-2` [CBN, 6,6,9-Trimethyl-3-pentyl-benzo[c]chromen-1-ol] here?
Its value is “also observed”.

What about the “inhibition of lipid peroxidation, cell-free” value [2] of the same compound?
The value was “showed no inhibition”.

What about the RSL3-induced morphological changes (HT22 cells [3]; 5 μM pretreatment 1 hr, then 50 nM RSL3 16 hr) of the same compound?
The RSL3-induced morphological changes was “effectively prevented”.

And the “neuroprotection against 50 nM RSL3” value (HT22 cells [3]; HT22 cells, CBN 10 μM, data not shown)?
The value was ~100%.

What about the EC50 (HT22 cells [3]; HT22 cells, 1 hr pretreatment, 50 nM RSL3, 16 hr, read-out: Observed EC50 RSL3) of the same compound?
The EC50 was 0.39 µM.

What about the EC50 (HT22 cells [3]; HT22 cells, 16 hr, read-out: EC50 against oxytosis/ferroptosis induced by 50 nM RSL3 (FIG. 2H)) of the same compound?
The EC50 was 0.69 µM.

What about the “decrease of mitochondrial membrane potential (ΔΨm)” value (HT22 cells [4]) of the same compound?
The value was “approximately 17%”.

What about the “activity at CB1/CB2 receptors” value (CB1/CB2 receptors) of the same compound?
The value was “weak agonist”.

What about the “binding affinities compared to THC, fold lower” value (CB1/CB2 receptors; tissue- or cell-type specific) of the same compound?
The value was 10 to 100 fold.

What about the “RSL3-induced cellular lipid peroxidation” value (HT22 cells [5]; 50 nM RSL3, 16 hr, p<0.0001) of the same compound?
Its value is “effectively suppressed”.

And the “basal cellular lipid peroxidation, compound alone” value (HT22 cells [5]; CBN 5 μM, ferrostatin 10 μM, 16 hr)?
The value was “neither CBN (5 μM) nor ferrostatin (10 μM) alone changed basal levels of lipid peroxidation”.

And the “protection against RSL3-induced cell death, no FCCP pretreatment” value ([6]; 16 hr)?
Its value is “strong and equivalent protection”.

What about the “protection against RSL3 after FCCP pretreatment (mitochondria-depleted cells)” value ([6]; FCCP 5 μM 24 hr, then 16 hr) of the same compound?
Its value is “failed to protect; also recorded: did not protect”.

What about the “cell numbers after FCCP pretreatment, co-treatment with compound” value ([6]; FCCP 24 hr, CBN additional 16 hr) of the same compound?
Its value is “did not further change the cell numbers”.

And the “Ca^2+ in cytosol and mitochondria, compound alone” value (HT22 cells [7]; 5 μM, 16 hr)?
The value was “did not affect Ca^2+ influx”.

What about the “Ca^2+ levels in cytosol and mitochondria with RSL3” value (HT22 cells [7]; pretreatment 1 hr, co-incubation with RSL3) of the same compound?
Its value is “maintained basal Ca^2+ levels”.

What about the EC50 (HT22 cells [8]) of the same compound?
Its EC50 is 2.5 µM.
